Values quoted from earlier work in patent US20210060038A1, “COMPOSITIONS FOR ELIMINATING BACTERIAL PROMOTORS OF COLORECTAL CANCER BY INTRALUMINAL APPLICATION” (priority 2018, published 2021).
Like-named read-outs stand apart in the source and are kept apart here. Each block holds one molecule with its values, some of them ahead of it.

Key:
[1] = not given; remark: listed apart in the source
[2] = test system: IPEC-J2 cells; conditions: IPEC-J2 cells exposed at 580 μg/mL, within 15 minutes
[3] = in vivo
[4] = sealed sachets at room temperature
[5] = test system: mouse macrophage cell line
[6] = test system: anaerobic genera Peptostreptococcus (including Peptoniphilus, Finegoldia and Anaerococcus)
[7] = test system: strains of organisms from the susceptible genera
[8] = test system: polymorphonuclear leukocytes
[9] = not given; remark: listed apart in the source
[10] = test system: resistant bacterial strains; conditions: overall, controlled clinical trials, oral or intravenous
[11] = test system: Staphylococcus, Streptococcus, Enterococcus, Neisseria, Escherichia, Proteus (indole-negative), Serratia, Salmonella, Shigella, Pseudomonas, Haemophilus, and …
[12] = test system: Pseudomonas aeruginosa; conditions: maximum
[13] = test system: anaerobic genus Fusobacterium
[14] = test system: indole-positive Proteus spp., Klebsiella and Enterobacter spp.
[15] = test system: anaerobic Bacteroides fragilis group of bacteria
[16] = test system: human macrophages; conditions: extracellular concentrations 0.125 to 1 μg/mL
[17] = test system: human polymorphonuclear leukocytes; conditions: rapid passive diffusion

Structure (SMILES): C[C@@H]1O[C@@H]1P(=O)(O)O [Fosfomycin calcium monohydrate]
pH of 0.4% solution (0.4% solution): 8.1-9.6 | solubility in water ([1]; calcium monohydrate): sparingly soluble in water | intracellular concentration [2]: ~30 µg/mL

Structure (SMILES): C[C@@H]1O[C@@H]1P(=O)(O)O [Fosfomycin disodium]
pH of 5% solution: 9.0-10.5 | solubility in water [1]: highly soluble in water | bioavailability [3]: high bioavailability

Structure (SMILES): C[C@@H]1O[C@@H]1P(=O)(O)O.NC(CO)(CO)CO [Fosfomycin trometamol]
pH of 5% solution: 3.5-5.5 | solubility in water [1]: highly soluble in water | stability of granulate [4]: long-term stability

Structure (SMILES): C[C@@H](O)[C@H]1C(=O)N2C(C(=O)O)=C(S[C@@H]3CN[C@H](C(=O)Nc4cccc(C(=O)O)c4)C3)[C@H](C)[C@H]12 [ertapenem]
extracellular concentration giving bactericidal intracellular concentrations [5]: ≥ 15 µg/mL

Structure (SMILES): C[C@@H]1O[C@@H]1P(=O)(O)O [fosfomycin, [(2R,3S)-3-methyloxiran-2-yl]phosphonic acid]
activity against Peptostreptococcus [6]: active | synergistic effect, share of tested strains ([7]; early studies, various antibiotic combinations): 70-100% | synergy rates ([7]; subsequent more extensive studies): 36-74% | concentration in polymorphonuclear leukocytes relative to extracellular fluid [8]: up to twice those of the extracellular fluid | eosinophilia ([9]; in vivo): 0.2% | transient rashes (allergy) ([9]; in vivo): 0.3 % of cases | transiently raised liver enzymes ([9]; systemically administered): 0.3 % of cases | appearance of resistant bacterial strains [10]: 3.0% | activity against aerobic genera [11]: active | appearance of resistant bacterial strains [12]: 15% | activity against Fusobacterium [13]: active | activity against indole-positive Proteus spp., Klebsiella and Enterobacter spp. [14]: less active | activity against Bacteroides fragilis group [15]: inactive

cellular to extracellular concentration ratio [16]: 3-12
Structure (SMILES): C[C@@H](O)[C@H]1C(=O)N2C(C(=O)O)=C(S[C@@H]3CN[C@H](C(=O)N(C)C)C3)[C@H](C)[C@H]12 [meropenem]

time for intracellular levels to approach equilibrium with extracellular levels [17]: ≤ 15 min
Structure (SMILES): Cc1ncc([N+](=O)[O-])n1CCO [metronidazole]
activity against Fusobacterium [13]: active | activity against Bacteroides fragilis group [15]: active
